# Measurements: ChEMBL document CHEMBL1201862, “PubChem BioAssay data set” (2004)
# The source made the active and inactive calls. For most assays here, no stated cut-off is given here; in the data, actives have a measured EC50 and inactives only a lower limit.
# Legend:
# HEK293 [1] = assay: HEK cell cytotoxicity by LDH release, dose response, cytotoxicity control for IDE activator project, fluorescence, HEK cells (AID 588440); assay type: functional, cell-based; conditions: Homo sapiens;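 further: cytotoxicity by LDH release measuring loss of membrane integrity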
# HEK293 [2] = assay: optical interference in Abeta FP readout, dose response, artefact control for IDE activator project, biochemical, fluorescence polarization (AID 588442); assay type: functional, cell-based; conditions: Homo sapiens
# Insulin-degrading enzyme [3] = biological target: T1, Insulin-degrading enzyme (Homo sapiens, UniProt P14735); assay: activators of recombinant IDE enzyme, dose response, counter-screen for IDE activator project, biochemical, fluorescence polarization (AID 588681)
# T1 sequence (P14735 whole entry): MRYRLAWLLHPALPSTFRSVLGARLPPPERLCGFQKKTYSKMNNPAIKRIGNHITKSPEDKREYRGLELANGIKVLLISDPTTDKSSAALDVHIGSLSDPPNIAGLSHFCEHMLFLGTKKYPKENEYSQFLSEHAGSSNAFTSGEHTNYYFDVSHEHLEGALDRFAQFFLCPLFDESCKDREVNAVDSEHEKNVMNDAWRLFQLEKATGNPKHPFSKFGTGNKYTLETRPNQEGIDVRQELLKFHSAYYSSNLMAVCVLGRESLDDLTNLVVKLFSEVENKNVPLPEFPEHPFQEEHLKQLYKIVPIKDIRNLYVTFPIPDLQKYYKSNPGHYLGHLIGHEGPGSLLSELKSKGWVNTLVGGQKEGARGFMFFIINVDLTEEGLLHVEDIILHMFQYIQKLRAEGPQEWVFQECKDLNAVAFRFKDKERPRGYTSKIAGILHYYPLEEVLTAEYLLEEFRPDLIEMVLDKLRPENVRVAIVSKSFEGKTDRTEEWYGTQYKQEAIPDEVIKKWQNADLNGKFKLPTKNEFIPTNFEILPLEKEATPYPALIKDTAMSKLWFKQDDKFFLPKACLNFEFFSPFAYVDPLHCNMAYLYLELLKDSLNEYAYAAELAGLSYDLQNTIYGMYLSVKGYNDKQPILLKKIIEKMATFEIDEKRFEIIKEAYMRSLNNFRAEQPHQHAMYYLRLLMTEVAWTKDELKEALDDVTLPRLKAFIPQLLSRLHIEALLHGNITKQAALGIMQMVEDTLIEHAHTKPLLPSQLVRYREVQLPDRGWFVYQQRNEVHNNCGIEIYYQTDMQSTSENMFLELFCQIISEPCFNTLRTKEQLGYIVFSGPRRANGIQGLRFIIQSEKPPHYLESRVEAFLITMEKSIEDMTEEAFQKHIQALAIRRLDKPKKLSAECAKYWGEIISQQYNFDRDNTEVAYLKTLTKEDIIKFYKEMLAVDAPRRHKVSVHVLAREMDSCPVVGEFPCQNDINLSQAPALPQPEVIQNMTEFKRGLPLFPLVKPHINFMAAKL
# Insulin-degrading enzyme [4] = biological target: T1, Insulin-degrading enzyme; assay: activators of endogenous IDE in HEK cells, dose response, cell-based, fluorescence polarization (AID 588439); assay type: functional
# [5] = biological target: Melanin-concentrating hormone receptor 1 (Homo sapiens, UniProt Q99705); assay: Late-stage fluorescence-based counterscreen for antagonists of the G-protein coupled receptor 7 (GPR7): cell-based dose response assay to identify antagonists of the melanin-concentrating hormone receptor 1 (MCHR1) Set 5.; assay type: functional
# Chain of Melanin-concentrating hormone receptor 1 (Q99705 whole entry): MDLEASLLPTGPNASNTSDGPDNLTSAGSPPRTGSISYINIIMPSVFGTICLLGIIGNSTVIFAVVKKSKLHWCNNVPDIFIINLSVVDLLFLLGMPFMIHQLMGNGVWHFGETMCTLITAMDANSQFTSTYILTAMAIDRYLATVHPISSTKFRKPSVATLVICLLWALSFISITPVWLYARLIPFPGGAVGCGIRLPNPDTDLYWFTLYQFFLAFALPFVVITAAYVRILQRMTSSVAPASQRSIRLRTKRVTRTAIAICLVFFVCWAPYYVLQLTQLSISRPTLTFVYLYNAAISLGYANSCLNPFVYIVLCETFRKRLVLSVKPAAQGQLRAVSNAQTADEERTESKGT
# [6] = C. albicans growth with fluconazole, confirmation, fluorescence, retest (AID 2467); assay type: functional, cell-based
# [7] = NIH-3T3 fibroblast cytotoxicity, dose response, cytotoxicity control, cell-based, fluorescence, Alamar Blue, secondary assay (AID 2327); assay type: functional;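 further: NIH-3T3 mouse fibroblasts cultured with fluconazole at 8 µg/mL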
# INS1 = assay: beta cell apoptosis inhibitors, cytokine rescue, dose response, luminescence, retest (AID 449756); assay type: functional, cell-based; conditions: Rattus norvegicus;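 further: cell death triggered by IL-1 beta plus TNF-alpha plus IFN-gamma mixture; protective hits raise ATP signal compared with cytokine alone wells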
# [8] = cytotoxicity toward NIH3T3 fibroblasts, dose response, counter-screen, cell-based, ATP luminescence, mouse fibroblasts (AID 2010); assay type: functional;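 further: cells exposed to compound for about 90 hours before reading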
# [9] = biological target: Serine/threonine-protein phosphatase (Candida dubliniensis (strain CD36 / CBS 7987 / NCPF 3949 / NRRLY-17841) (Yeast), UniProt B9W6M3); assay: calcineurin pathway inhibitors in yeast reporter, dose response, S. cerevisiae, CDRE-lacZ, luminescence, secondary (AID 2388); assay type: functional, cell-based;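 further: yeast reporter cells carrying a calcineurin-responsive lacZ construct stimulated with calcium chloride; luminescent beta-galactosidase reporter signal in whole cells rather than isolated phosphatase activity; potency for inhibition where a drop in reporter signal means calcineurin blockade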
# Chain of Serine/threonine-protein phosphatase (B9W6M3 whole entry): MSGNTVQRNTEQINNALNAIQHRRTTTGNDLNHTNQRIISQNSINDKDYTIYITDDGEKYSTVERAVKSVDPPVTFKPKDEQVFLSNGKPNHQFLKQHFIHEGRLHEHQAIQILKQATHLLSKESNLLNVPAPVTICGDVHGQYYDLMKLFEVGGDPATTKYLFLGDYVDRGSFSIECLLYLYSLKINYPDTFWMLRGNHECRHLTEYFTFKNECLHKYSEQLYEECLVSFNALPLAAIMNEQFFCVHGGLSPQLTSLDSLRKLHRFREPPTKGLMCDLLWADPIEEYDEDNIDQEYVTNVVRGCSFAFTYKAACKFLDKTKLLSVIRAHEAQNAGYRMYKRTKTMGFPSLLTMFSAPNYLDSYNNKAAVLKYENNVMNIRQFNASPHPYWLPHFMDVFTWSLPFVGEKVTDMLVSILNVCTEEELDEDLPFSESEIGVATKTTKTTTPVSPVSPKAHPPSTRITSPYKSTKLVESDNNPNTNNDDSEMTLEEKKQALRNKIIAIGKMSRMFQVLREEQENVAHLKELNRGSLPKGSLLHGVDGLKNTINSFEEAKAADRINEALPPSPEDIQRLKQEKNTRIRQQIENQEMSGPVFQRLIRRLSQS
# BJ [10] = assay: cytotoxicity toward BJ-TERT-LT-ST fibroblasts, dose response, cell-based, RAS-independent, luminescence (AID 1935); assay type: functional; conditions: Homo sapiens;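 further: BJ fibroblasts immortalized with TERT plus LT and ST oncogenes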
# BJ [11] = assay: cells; assay type: functional, cell-based; conditions: Homo sapiens
# [12] = test system: Streptococcus sp. 'group A'; assay: growth inhibition of control SK(-) GAS strain, dose response, counter-screen for streptokinase expression inhibitor project, luminescence, kanamycin, BacTiterGlo, confirmation (AID 1900); assay type: functional, organism-based
# [13] = cytotoxicity toward DRD oncogenic fibroblasts, dose response, cell-based, non-viral oncogenic, luminescence (AID 1934); assay type: functional; conditions: Homo sapiens
# Streptokinase A = biological target: T2, Streptokinase A (Streptococcus pyogenes serotype M1, UniProt P10520); assay: S. pyogenes streptokinase expression inhibitors, potency, dose response, plasminogen activation absorbance, OD405 (AID 1914); assay type: functional, Streptococcus pyogenes M1 GAS;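 further: secreted streptokinase activity via plasminogen activation per viability signal from cell pellet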
# T2 sequence (P10520 whole entry): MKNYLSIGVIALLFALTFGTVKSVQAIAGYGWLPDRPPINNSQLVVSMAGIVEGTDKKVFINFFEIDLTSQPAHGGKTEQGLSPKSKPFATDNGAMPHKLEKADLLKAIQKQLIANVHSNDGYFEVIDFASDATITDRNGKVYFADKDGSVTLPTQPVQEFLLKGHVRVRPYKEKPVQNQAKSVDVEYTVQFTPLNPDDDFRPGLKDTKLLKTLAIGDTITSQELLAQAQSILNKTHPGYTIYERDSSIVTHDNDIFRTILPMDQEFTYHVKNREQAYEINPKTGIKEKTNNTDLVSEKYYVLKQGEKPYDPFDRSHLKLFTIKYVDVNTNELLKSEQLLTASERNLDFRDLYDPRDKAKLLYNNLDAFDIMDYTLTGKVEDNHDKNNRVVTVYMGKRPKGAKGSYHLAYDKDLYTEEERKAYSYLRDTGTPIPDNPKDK
# BJ [14] = assay: cytotoxicity toward BJ-TERT fibroblasts, dose response, cell-based, RAS-independent, luminescence (AID 1933); assay type: functional; conditions: Homo sapiens
# Streptococcus = assay: Group A Streptococcus viability loss, dose response, counter-screen for streptokinase expression inhibitor project, luminescence, BacTiterGlo (AID 1915); assay type: functional, organism-based;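 further: potency for reduction of bacterial viability or growth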
# [15] = inhibitors of intracellular T. cruzi replication, confirmation, NIH3T3 host cells, beta-gal luminescence (AID 2044); assay type: functional, cell-based;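 further: intracellular parasites grown in NIH/3T3 mouse fibroblasts as host cells; luminescent beta-galactosidase reporter signal from transgenic T. cruzi replicating inside host cells; inhibitors lower the luminescence signal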
# [16] = biological target: ATP-dependent molecular chaperone HSP82 (Candida albicans (strain WO-1) (Yeast), UniProt C4YTQ8); assay: loss of DOC-induced GRE-beta-galactosidase reporter signal, dose response, Hsp90 inhibitor project, S. cerevisiae, luminescence (AID 2400); assay type: functional, cell-based;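 further: beta-galactosidase luminescence from glucocorticoid response element reporter as proxy for Hsp90 function; inhibitor potency where signal loss means Hsp90 inhibition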
# Chain of ATP-dependent molecular chaperone HSP82 (C4YTQ8 whole entry): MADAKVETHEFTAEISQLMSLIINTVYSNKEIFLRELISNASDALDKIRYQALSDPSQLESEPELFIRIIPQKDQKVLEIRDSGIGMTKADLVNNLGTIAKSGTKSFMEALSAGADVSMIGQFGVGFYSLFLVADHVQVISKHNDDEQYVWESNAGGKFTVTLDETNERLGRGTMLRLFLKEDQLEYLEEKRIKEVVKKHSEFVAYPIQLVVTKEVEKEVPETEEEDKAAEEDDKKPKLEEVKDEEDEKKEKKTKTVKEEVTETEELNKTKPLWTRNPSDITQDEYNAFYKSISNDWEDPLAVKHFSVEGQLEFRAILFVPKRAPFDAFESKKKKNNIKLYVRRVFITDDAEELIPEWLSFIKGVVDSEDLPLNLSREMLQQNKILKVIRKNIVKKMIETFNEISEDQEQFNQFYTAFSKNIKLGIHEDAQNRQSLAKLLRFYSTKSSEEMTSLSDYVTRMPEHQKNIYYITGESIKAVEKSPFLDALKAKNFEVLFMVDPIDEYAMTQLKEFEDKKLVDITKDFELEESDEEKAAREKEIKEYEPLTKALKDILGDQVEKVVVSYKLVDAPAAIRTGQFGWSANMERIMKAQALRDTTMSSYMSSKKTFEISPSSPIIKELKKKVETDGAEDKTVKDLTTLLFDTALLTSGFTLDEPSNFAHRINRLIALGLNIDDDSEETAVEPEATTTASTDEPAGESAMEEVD
smiles,measurement,setting,value
COc1ccc(/C=C2\Oc3cc(OCC(=O)N4CCC(C(=O)O)CC4)ccc3C2=O)c(OC)c1,IC50,HEK293 [1],> 89.3 µM (inactive)
same,EC50,HEK293 [2],> 56 µM (inactive)
same,EC50,Insulin-degrading enzyme [3],> 54.7 µM (inactive)
same,EC50,Insulin-degrading enzyme [4],> 54.7 µM (inactive)
CCc1ccccc1Cn1ncc(Cl)c(Oc2ccc(OC)cc2)c1=O,IC50,[5],4.62 µM (active)
Nc1nonc1-n1nnc(C(=O)N/N=C/c2cc(Cl)ccc2O)c1CN1CCCCCC1,EC50,[6],296 nM (active)
same,EC50,[7],29.6 µM (active)
same,AC50,INS1,1.85 µM (active)
same,EC50,[8],6.91 µM (active)
same,EC50,[9],> 180 µM (inactive)
same,EC50,BJ [10],> 75 µM (not active)
same,EC50,BJ [11],115 µM (active)
same,EC50,[12],4.87 µM (active)
same,EC50,[13],55.4 µM (active)
same,EC50,Streptokinase A,> 150 µM (not active)
same,EC50,BJ [14],24.9 µM (active)
same,EC50,Streptococcus,20.4 µM (active)
same,EC50,[15],1.39 µM (active)
same,EC50,[16],> 150 µM (inactive)
